Test results as given in ChEMBL document CHEMBL1177696, “Heat shock protein 70 (hsp70) as an emerging drug target” (J Med Chem, 2010).
Converted amounts (≈) assume the structure as drawn.

Experiments:
[1] = Inhibition of Escherichia coli DNAK by luciferase-refolding assay
[2] = test system: Escherichia coli; experiment: Ratio of ciprofloxacin MIC to compound MIC for Escherichia coli; format: functional
[3] = Inhibition of APIase activity of Escherichia coli MC4100 DNAK
[4] = test system: Escherichia coli; experiment: Antibacterial activity against Escherichia coli MC4100; format: functional
[5] = test system: Yersinia pseudotuberculosis; experiment: Antibacterial activity against Yersinia pseudotuberculosis; format: functional
[6] = test system: Escherichia coli; experiment: Antibacterial activity against Escherichia coli; format: functional
[7] = Binding affinity to Escherichia coli DNAK substrate binding domain by isothermal titration assay
[8] = target: Heat shock cognate 71 kDa protein (Homo sapiens) (UniProt P11142); experiment: Binding affinity to HSC70 EEVD domain by mass spectroscopy
Chain of Heat shock cognate 71 kDa protein (Homo sapiens) (P11142 2-646 limits assumed): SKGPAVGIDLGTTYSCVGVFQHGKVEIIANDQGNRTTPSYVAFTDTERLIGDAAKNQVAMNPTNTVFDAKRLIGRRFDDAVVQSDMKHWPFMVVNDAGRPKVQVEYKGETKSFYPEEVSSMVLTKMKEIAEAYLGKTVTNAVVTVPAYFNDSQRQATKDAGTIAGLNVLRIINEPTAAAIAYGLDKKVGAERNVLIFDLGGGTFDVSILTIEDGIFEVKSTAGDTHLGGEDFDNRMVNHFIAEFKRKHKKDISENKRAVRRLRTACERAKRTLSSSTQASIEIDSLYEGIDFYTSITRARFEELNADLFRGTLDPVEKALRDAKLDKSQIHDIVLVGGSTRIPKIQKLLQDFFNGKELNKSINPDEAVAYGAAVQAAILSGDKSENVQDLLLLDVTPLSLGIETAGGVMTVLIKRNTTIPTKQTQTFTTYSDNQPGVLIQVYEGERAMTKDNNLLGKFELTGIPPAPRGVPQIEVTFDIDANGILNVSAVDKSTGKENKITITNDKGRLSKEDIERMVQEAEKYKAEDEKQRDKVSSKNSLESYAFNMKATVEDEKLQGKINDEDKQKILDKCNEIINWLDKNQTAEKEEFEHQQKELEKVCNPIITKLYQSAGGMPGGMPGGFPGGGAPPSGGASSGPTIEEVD

[9] = Alpha half life in renal transplant patient; format: ADME, organism-based; conditions: human, in vivo; read-out: alphat1/2
[10] = Binding affinity to HSP90 EEVD domain by mass spectroscopy
[11] = test system: Saccharomyces cerevisiae; experiment: Induction of ATPase activity of yeast cytosolic HSC70
[12] = Terminal half life in renal transplant patient; format: ADME, organism-based; conditions: human, in vivo; read-out: beta t1/2 (converted)
[13] = test system: L1210; experiment: Antitumor activity against mouse L1210 cells xenografted in CDF1 mouse assessed as log reduction in tumor burden; format: functional
[14] = Cytotoxicity against human erythrocytes assessed as hemolysis after 30 mins by spectrometric analysis; format: cell-based; conditions: Erythrocyte, 0.5 h
[15] = test system: Escherichia coli; experiment: Inhibition of Escherichia coli DNAK at 150 uM
[16] = Antiproliferative activity against human breast cancer cells; format: functional, cell-based; conditions: Cancer cell lines
[17] = Antiproliferative activity against human bladder cancer cells; format: functional, cell-based; conditions: Cancer cell lines
[18] = Antiproliferative activity against human colon cancer cells; format: functional, cell-based; conditions: Cancer cell lines

COC(=O)C1=C(CCc2ccccc2)NC(=O)NC1c1ccc([N+](=O)[O-])cc1 (configuration not stated)
EC50 [1]: 4 µM

H-GRPDKPRPYLPRPRPPRPVRI-OH
Ratio [2]: 4

CCCCCCCCCCCCCCC(=O)NCc1ccc(C(=O)N[C@H](C(=O)O)[C@@H](C)CC)cc1
IC50 [3]: 5 µM | MIC [4]: 380 µg/mL (≈ 778 µM)

Cc1ccc(NC(=O)c2ccc([N+](=O)[O-])o2)cc1
MIC [5]: < 12 µM | MIC [6]: 10 µM (≈ 2.46 µg/mL)

O=C(NCc1ccccc1F)c1cccs1
Kd [7]: 70 µM | MIC [5]: 10 µM (≈ 2.35 µg/mL) | MIC [6]: 10 µM (≈ 2.35 µg/mL)

N=C(N)NCCCCCCC(=O)N[C@@H](O)C(=O)NCCCCNCCCN
Activity [8]: 5 µM | half-life [9]: 5 min | Activity [10]: 5 µM | Activity [11]: 20% | half-life [12]: 2 h | FC [13]: 4

CCCCCCCCCCCCCCCCC(=O)NCc1ccc(C(=O)N[C@H](C(=O)O)[C@@H](C)CC)cc1
IC50 [3]: 1.2 µM | MIC [4]: 180 µg/mL (≈ 348 µM)

CCCC/C=C\CCCCCCCCC(=O)NCc1ccc(C(=O)N[C@H](C(=O)O)[C@@H](C)CC)cc1
EC50 [14]: > 1500 µg/mL | IC50 [3]: 36 µM | MIC [4]: 280 µg/mL (≈ 575 µM)

O=C(Nc1ccc2[nH]ccc2c1)c1cccs1
Kd [7]: 12.7 µM | MIC [5]: 10 µM (≈ 2.42 µg/mL) | MIC [6]: 10 µM (≈ 2.42 µg/mL)

CC1=C(C(=O)OCc2ccccc2)C(c2ccc(C3CCCCC3)cc2)NC(=O)N1CCCCCC(=O)O (configuration not stated)
inhibition [15]: 80%

CCn1c(=O)/c(=C2\Sc3ccccc3N2C)s/c1=C\c1cccc[n+]1CC
IC50 [16]: 1 µM | IC50 [17]: 1 µM | IC50 [18]: 1 µM
